From publication PMC3214022, “Plasmodium falciparum Parasites Are Killed by a Transition State Analogue of Purine Nucleoside Phosphorylase in a Primate Animal Model” (PLoS ONE, 2011)
“And” between values parts separate entries of the source, which are not always exact repeats. Equal values may be shown once.

Test: Weights, CBC and blood chemistry, Table S1 sheet PD-1 (efficacy study in P. falciparum-infected Aotus)
Type: in vivo, Aotus lemurinus lemurinus
Method: Laboratory bred Aotus lemurinus lemurinus monkeys (0.75–0.89 kg) were maintained as described. […] Blood samples were collected before the treatment started (t = 0), 0.05 h, 0.5 h, 1 h, 2 h, 6 h, 24 h, 48 h, and 6, 12 and 18 days after the first dose from each monkey and processed as described below. Pharmacokinetic parameters were calculated using PKSolver. For efficacy studies, Aotus monkeys were inoculated intravenously with 5×10^6 parasites of the FVO strain of P. falciparum in an approved treatment protocol. […] Parasitaemia was determined by Giemsa-stained thick blood smears prepared daily from the marginal ear vein [41]. Blood samples were collected from each monkey and transferred to tubes containing lithium heparin, centrifuged and both plasma and blood cells were frozen at −80 °C until analysis. Animals received a physical examination and blood chemistry profiles were monitored after treatment as described previously. Any monkey not responding appropriately to treatment was cured of its infection with mefloquine (40 mg kg^−1). […] The day of clearance is defined as the first of three consecutive days in which the thick blood films are parasite negative. The day of recrudescence is the first of three consecutive days of positive thick blood films after a period of clearance. Suppression is defined as a transient decrease in the parasite count post-treatment without clearance.

[1] = IV 10 mg/kg once a day/3 days, day -2, 10 mg/kg
[2] = oral 50 mg/kg once a day/3 days, day 9, 50 mg/kg
[3] = oral 50 mg/kg once a day/3 days, day 12, 50 mg/kg
[4] = oral 50 mg/kg once a day/3 days, day 19, 50 mg/kg
[5] = oral 50 mg/kg once a day/3 days, day 25, 50 mg/kg
[6] = oral 50 mg/kg once a day/3 days, day -2, 50 mg/kg

SMILES: Nc1nc2c(CN3CC(O)C(CO)C3)c[nH]c2c(=O)[nH]1 (centres unmarked) [BCX4945, 4′-deaza-1′-aza-2′-deoxy-1′-(9-methylene)-Immucillin-G]
- Mean Platelet Volume [1]: 14.7 fL and 12.2 fL and 11 fL and 10.9 fL and 13.1 fL
- Monocytes (%) [1]: 5.1% and 3.6% and 2.9% and 6.5% and 4.2%
- Monocytes (x 103/ul) [1]: 0.9 x 103/ul and 0.8 x 103/ul and 0.6 x 103/ul and 0.5 x 103/ul and 0.7 x 103/ul
- Platelets [1]: 354000 µL⁻¹ and 250000 µL⁻¹ and 406000 µL⁻¹ and 431000 µL⁻¹ and 270000 µL⁻¹ and 371000 µL⁻¹
- Red Cell Distribution Width [1]: 12.5% and 12.2% and 11.4% and 12.4% and 12%
- Reticulocytes [1]: 1.9% and 1% and 1.5% and 1.2% and 1.3%
- WEIGHT [1]: 680 g and 766 g and 832 g and 849 g and 684 g
- Blood Urea Nitrogen [2]: 14.3 mg/dL and 15 mg/dL and 13.15 mg/dL
- Creatinine [2]: 0.672 mg/dL and 0.825 mg/dL and 0.587 mg/dL
- Erythrocytes [2]: 4.76e+06 µL⁻¹ and 5.14e+06 µL⁻¹ and 3.94e+06 µL⁻¹
- Granulocytes (%) [2]: 21.7% and 25.8% and 21.1%
- Granulocytes (x 103/ul) [2]: 4.4 x 103/ul and 2.3 x 103/ul and 3.3 x 103/ul
- Hematocrit [2]: 38.1% and 39.5% and 32.5%
- Hemoglobin [2]: 12.9 g/dL and 13.5 g/dL and 10.8 g/dL
- Lymphocytes (%) [2]: 61% and 66.1% and 63.4%
- Mean Corpuscular Hemoglobin [2]: 27.1 pg and 26.3 pg and 27.5 pg
- Mean Corpuscular Volume [2]: 80.1 fL and 76.8 fL and 82.4 fL
- Mean Hemoglobin Content [2]: 33.8 g/dL and 34.2 g/dL and 33.4 g/dL
- Mean Platelet Volume [2]: 11 fL and 13.9 fL
- Monocytes (%) [2]: 17.3% and 8.1% and 15.5%
- Red Cell Distribution Width [2]: 13.3% and 12% and 10.8%
- Reticulocytes [2]: 2.5% and 1.1% and 1%
- WEIGHT [2]: 851 g and 873 g and 776 g
- Blood Urea Nitrogen [3]: 23.05 mg/dL and 23.55 mg/dL and 26.95 mg/dL
- Creatinine [3]: 0.563 mg/dL and 0.686 mg/dL and 0.565 mg/dL
- Erythrocytes [3]: 4.04e+06 µL⁻¹ and 4.25e+06 µL⁻¹ and 2.77e+06 µL⁻¹
- Glutamate Pyruvate Transaminase [3]: 46.7 U/L and 46.1 U/L and 37.8 U/L
- Granulocytes (%) [3]: 17.9% and 26.3% and 14.8%
- Hematocrit [3]: 33.2% and 32.4% and 22.7%
- Hemoglobin [3]: 7.7 g/dL
- Leucocytes [3]: 42000 µL⁻¹ and 22200 µL⁻¹ and 22000 µL⁻¹
- Lymphocytes (%) [3]: 68.1% and 66.2% and 76.8%
- Lymphocytes (x 103/ul) [3]: 28.6 x 103/ul and 14.7 x 103/ul and 16.9 x 103/ul
- Mean Corpuscular Hemoglobin [3]: 27.7 pg and 26.4 pg and 27.6 pg
- Mean Corpuscular Volume [3]: 82.1 fL and 76.4 fL and 81.9 fL
- Mean Hemoglobin Content [3]: 33.7 g/dL and 34.5 g/dL
- Mean Platelet Volume [3]: 11.3 fL and 14.6 fL and 11.8 fL
- Monocytes (%) [3]: 14% and 7.5% and 8.4%
- Red Cell Distribution Width [3]: 13.4% and 11.3%
- Reticulocytes [3]: 1.9% and 2% and 2.3%
- WEIGHT [3]: 800 g and 804 g and 738 g
- Blood Urea Nitrogen [4]: 16.75 mg/dL and 18.3 mg/dL and 27.85 mg/dL
- Creatinine [4]: 0.614 mg/dL and 0.695 mg/dL and 0.678 mg/dL
- Erythrocytes [4]: 3.94e+06 µL⁻¹ and 4.96e+06 µL⁻¹ and 3.82e+06 µL⁻¹
- Granulocytes (%) [4]: 9.6% and 17.6% and 10.1%
- Hematocrit [4]: 35.3% and 41.8% and 36.2%
- Hemoglobin [4]: 11.5 g/dL and 14 g/dL and 11.6 g/dL
- Lymphocytes (%) [4]: 79% and 75.3% and 78.4%
- Mean Corpuscular Hemoglobin [4]: 29.3 pg and 28.3 pg and 30.3 pg
- Mean Corpuscular Volume [4]: 89.8 fL and 84.2 fL and 94.8 fL
- Mean Hemoglobin Content [4]: 32.6 g/dL and 33.6 g/dL and 32 g/dL
- Mean Platelet Volume [4]: 12.3 fL and 13.3 fL and 19.7 fL
- Monocytes (%) [4]: 11.4% and 11.5%
- Monocytes (x 103/ul) [4]: 6.8 x 103/ul and 3.9 x 103/ul
- Red Cell Distribution Width [4]: 22.7% and 21.9% and 24.4%
- Reticulocytes [4]: 1.7% and 1.6% and 1.8%
- WEIGHT [4]: 832 g and 847 g and 757 g
- Blood Urea Nitrogen [5]: 24.4 mg/dL and 16 mg/dL and 21 mg/dL
- Creatinine [5]: 0.52 mg/dL and 0.578 mg/dL and 0.663 mg/dL
- Erythrocytes [5]: 4.62e+06 µL⁻¹ and 4.69e+06 µL⁻¹ and 5.44e+06 µL⁻¹
- Glutamate Pyruvate Transaminase [5]: 17.7 U/L and 27.2 U/L
- Hematocrit [5]: 40.4% and 41.4% and 44.4%
- Hemoglobin [5]: 13.5 g/dL and 14 g/dL and 15.5 g/dL
- Leucocytes [5]: 15400 µL⁻¹ and 16400 µL⁻¹ and 15300 µL⁻¹
- Lymphocytes (%) [5]: 65.9% and 79.6% and 75.3%
- Lymphocytes (x 103/ul) [5]: 10.1 x 103/ul and 13.1 x 103/ul and 11.5 x 103/ul
- Mean Corpuscular Hemoglobin [5]: 29.3 pg and 29.8 pg and 28.6 pg
- Mean Corpuscular Volume [5]: 87.4 fL and 88.1 fL and 81.7 fL
- Mean Hemoglobin Content [5]: 33.5 g/dL and 33.7 g/dL and 35 g/dL
- Mean Platelet Volume [5]: 14.1 fL
- Monocytes (%) [5]: 7.3% and 7% and 11.7%
- Monocytes (x 103/ul) [5]: 1.1 x 103/ul and 1.8 x 103/ul
- Red Cell Distribution Width [5]: 19.2% and 20.4% and 17.9%
- Reticulocytes [5]: 1.3% and 2.1% and 2%
- WEIGHT [5]: 748 g and 818 g and 853 g
- Mean Platelet Volume (oral 50 mg/kg once a day/3 days, day -2): 12.8 fL
- Blood Urea Nitrogen [6]: 18 mg/dL and 23.05 mg/dL
- Creatinine [6]: 0.679 mg/dL and 0.554 mg/dL
- Erythrocytes [6]: 7.17e+06 µL⁻¹ and 6.1e+06 µL⁻¹ and 5.2e+06 µL⁻¹
- Granulocytes (%) [6]: 33.3% and 31.8% and 22.4%
- Hematocrit [6]: 54.4% and 48% and 42.5%
- Hemoglobin [6]: 19.3 g/dL and 17 g/dL and 14.7 g/dL
- Leucocytes [6]: 16900 µL⁻¹ and 15400 µL⁻¹ and 11300 µL⁻¹
- Lymphocytes (%) [6]: 61.5% and 64.5% and 73.1%
- Lymphocytes (x 103/ul) [6]: 10.4 x 103/ul and 9.9 x 103/ul and 8.3 x 103/ul
- Mean Corpuscular Hemoglobin [6]: 26.8 pg and 27.8 pg and 28.2 pg
- Mean Corpuscular Volume [6]: 75.8 fL and 78.6 fL and 81.7 fL
- Mean Hemoglobin Content [6]: 35.4 g/dL and 34.6 g/dL
- Mean Platelet Volume [6]: 10.2 fL and 10.4 fL
- Monocytes (%) [6]: 5.2% and 3.7% and 4.5%
- Monocytes (x 103/ul) [6]: 0.9 x 103/ul and 0.6 x 103/ul and 0.5 x 103/ul
- Platelets [6]: 463000 µL⁻¹ and 389000 µL⁻¹ and 372000 µL⁻¹
- Red Cell Distribution Width [6]: 11.8% and 13.6% and 10.4%
- Reticulocytes [6]: 1.8% and 2% and 1.7%
- WEIGHT [6]: 804 g and 800 g and 738 g
